Test results taken from US10508103B2, “Benzimidazole-linked indole compound acting as novel divalent IAP antagonist” (MEDSHINE DISCOVERY INC., priority 2016, dated 2019).
pEC50, pIC50: −log10 of the molar value.

How the values were obtained:
[1] = system: NF-κB Luciferase Reporter Hela cells; assay: TNF-α inducing NF-κB reporter; assay type: cell-based
Protocol: Biological Assay 2: TNF-α inducing NF-κB reporter
• 1) tested compounds were added into DMSO to give parent liquor (10 mM); • 2) reference compound Birinapant (32 μL, 10 mM) was added into DMSO (128 μL) to give a solution (2 mM); • 3) 0.5 μL reference compound Birinapant (2 mM) and tested compounds (10 mM) were taken by Echo and added into Greiner 96 well black cell culture plate respectively. The initial concentration of the reference compound and tested compound was 10 μM and 50 μM, respectively. Then, the reference compound and tested compounds were diluted at 9 points in series by 5-fold; and every plate was repeated for 3 times. • 4) the reference compound WXFL2012A001 (Birinapant) (final concentration: 10 μM) as HPE and DMSO (final concentration: 0.5%) as ZPE.
• 5) purpose of the three repeated plates: the first plate was used for testing compounds' activity;
the second plate was used for testing cytotoxicity of the compounds; the third plate was used for solution replacement of the first and second plates: mixing inducer TNF-α and medium containing 0.1% FBS, and then being added to the third plate and the resultant mixture was transferred to the first plate where supernatants had been removed.
• 1) removing medium in NF-iBLuciferase Reporter Hela cell culture flask and washing cell once with PBS (10 mL) • 2) adding 0.25% pancreatin (3 mL) to T150 cell culture flask, and placinginto cell incubator (37° C., 5%CO2) and dissociating cell for 3 min, and then medium (10 mL) was added to end dissociation and blowing cells with electric pipette until cells were dispersed into single cell. • 3) Calculating cell density with cell counter Countstar • 4) Adjusting NF-κB Luciferase Reporter Hela density with medium to 2.0×10^5 cells/mL • 5) Adding cells to two Greiner 96 well black cell culture plates containing compounds, (100 μL per well (2.0×10^4 cells/well)), one plate was used for testing compounds' activity, another was used for testing cytotoxicity of the compounds. • 6) Placing cell culture plates into cell incubator (37° C., 5%CO2) and incubatingfor 24 h Second Day TNF-α Inducing • 1) TNF-α (100 μg/mL) was diluted into 20 ng/mL with 0.1% FBS medium and transferredto the third plate with 100 μL per well • 2) Removing medium of the first 96 well black cell culture plate (compound activity testing plate) after 24 h, replacing with fresh medium containing the compound and 20 ng/mL TNF-α in the third plate • 3) Placing cell culture plate into cell incubator (37° C., 5% CO2) and incubatingfor 6 h • 4) after 6 h, compound's activity in the first plate was tested according to Bright-Glo (Promega) manual method, luciferase signal in each well was tested by Envision plate reader • 5) compound's cytotoxicity in the second plate was tested according to ATPlite 1Step (Perkin Elmer) manual method, luciferase signal in each well was tested by Envision plate reader • 6) analyzing with software to obtain EC50 of compound.

[2] = biological target: cIAP1-BIR3 Protein (Homo sapiens (Human), UniProt Q13490); assay: Fluorescence polarization affinity of compounds to cIAP1-BIR3; assay type: binding; conditions: cIAP1-BIR3 20 nM; 5 nM ARPFAQ-K(5-FAM)-NH2 probe; FP; pH 7.5; read-out: affinity to target protein in vitro, cIAP1-BIR3 Protein (IC50)
Sequence of cIAP1-BIR3 Protein (Q13490 253-363): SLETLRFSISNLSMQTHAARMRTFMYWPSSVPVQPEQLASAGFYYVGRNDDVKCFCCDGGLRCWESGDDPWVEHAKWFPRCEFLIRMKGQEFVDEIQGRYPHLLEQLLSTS
Protocol: (§1) Biological Assay 1: affinity of compounds to cIAP1-BIR3, cIAP2-BIR3, XIAP-BIR3 • 1) Affinity of compounds listed in table to cIAP1-BIR3, Ciap2-BIR3, XIAP-BIR3 was tested referring to Nikolovska-Colesks, Z. et.Al. (Analytical Biochemistry,2004,232:261-273) to obtain IC50 value. Generally speaking, in 10-dose IC50 mode, IAP antagonists with different concentrations were diluted in series by 3-fold and fluorescence labelled ARPFAQ-K (5-FAM)-NH2 peptide was used as probe to test compounds binding to protein BIR3 domain. • 2) Test condition: cIAP1-BIR3: 20 nM; cIAP2-BIR3: 60 nM; XIAP-BIR3: 30 nM; 5 nM probe in 100 mM tripotassium phosphate, pH 7.5, 0.1 mg/mL BSA, 0.005% Triton X100 and 0.5% DMSO. • 3) Test procedure: compounds were added into protein with different concentrations by using ECHO (LabCyte), and then the mixture was preincubated for 15 min. The probe was added and the final concentration was 5 nM. After incubating for 60 min, FP was tested and mP was calculated. Experiment results were list in table 1.

[3] = biological target: cIAP2-BIR3 Protein (Homo sapiens (Human), UniProt Q13489); assay: Fluorescence polarization affinity of compounds to cIAP2-BIR3; assay type: binding; conditions: cIAP2-BIR3 60 nM; 5 nM ARPFAQ-K(5-FAM)-NH2 probe; FP; pH 7.5; read-out: affinity to target protein in vitro, cIAP2-BIR3 Protein (IC50)
Sequence of cIAP2-BIR3 Protein (Q13489 238-349): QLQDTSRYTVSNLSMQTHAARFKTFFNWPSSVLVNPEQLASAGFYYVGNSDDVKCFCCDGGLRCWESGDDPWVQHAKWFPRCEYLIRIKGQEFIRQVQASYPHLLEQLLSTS
Protocol: as §1

[4] = biological target: XIAP-BIR3 Protein (Homo sapiens (Human), UniProt P98170); assay: Fluorescence polarization affinity of compounds to XIAP-BIR3; assay type: binding; conditions: XIAP-BIR3 30 nM; 5 nM ARPFAQ-K(5-FAM)-NH2 probe; FP; pH 7.5; read-out: affinity to target protein in vitro, XIAP-BIR3 Protein (IC50)
Sequence of XIAP-BIR3 Protein (P98170 241-356): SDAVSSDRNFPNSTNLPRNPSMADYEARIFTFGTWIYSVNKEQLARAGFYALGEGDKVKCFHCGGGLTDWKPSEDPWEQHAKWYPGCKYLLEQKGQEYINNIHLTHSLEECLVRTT
Protocol: as §1

[5] = Homo sapiens, 6 h, Table 3, 20 ng/mL TNF-α, Bright-Glo luciferase, values given as ranges
[6] = Homo sapiens, 6 h, Table 4, 20 ng/mL TNF-α, Bright-Glo luciferase, exact values with control Birinapant

| Structure (SMILES) | pEC50 [1, 5] | pEC50 [1, 6] | pIC50 [2] | pIC50 [3] | pIC50 [4] | pEC50 ([1]; Homo sapiens, Table 3, 20 ng/mL TNF-α, 6 h, Bright-Glo luciferase, values given as ranges) |
| --- | --- | --- | --- | --- | --- | --- |
| CN[C@@H](C)C(=O)N[C@H](C(=O)N1CCC[C@H]1Cc1c(-c2nc3cc(F)ccc3n2C[C@@H]2CCCN2C(=O)[C@@H](NC(=O)[C@H](C)NC)C(C)C)[nH]c2cc(F)ccc12)C(C)C [Embodiment 1] | > 8.00 | 8.15 | > 8.00 | 7.00 to 8.00 | 7.00 to 8.00 | – |
| CC[C@H](NC(=O)[C@H](C)NC)C(=O)N1CCC[C@H]1Cc1c(-c2nc3cc(F)ccc3n2C[C@@H]2CCCN2C(=O)[C@@H](NC(=O)[C@H](C)NC)C(C)C)[nH]c2cc(F)ccc12 [Embodiment 2] | 7.00 to 8.00 | – | > 8.00 | 7.00 to 8.00 | 7.00 to 8.00 | – |
| CC[C@H](NC(=O)[C@H](C)NC)C(=O)N1C[C@@H](F)C[C@H]1Cc1c(-c2nc3cc(F)ccc3n2C[C@@H]2C[C@H](F)CN2C(=O)[C@H](CC)NC(=O)[C@H](C)NC)[nH]c2cc(F)ccc12 [Embodiment 13] | < 7.00 | – | 7.00 to 8.00 | 7.00 to 8.00 | 7.00 to 8.00 | – |
| CN[C@@H](C)C(=O)N[C@H](C(=O)N1C[C@@H](F)C[C@H]1Cc1c(-c2nc3cc(F)ccc3n2C[C@@H]2C[C@H](F)CN2C(=O)[C@@H](NC(=O)[C@H](C)NC)C2CC2)[nH]c2cc(F)ccc12)C1CC1 [Embodiment 14] | 7.00 to 8.00 | – | > 8.00 | 7.00 to 8.00 | 7.00 to 8.00 | – |
| CN[C@@H](C)C(=O)N[C@H](C(=O)N1C[C@@H](F)C[C@H]1Cc1c(-c2nc3cc(F)ccc3n2C[C@@H]2C[C@H](F)CN2C(=O)[C@@H](NC(=O)[C@H](C)NC)C(C)C)[nH]c2cc(F)ccc12)C(C)C [Embodiment 16] | > 8.00 | 9.18 | > 8.00 | 7.00 to 8.00 | 7.00 to 8.00 | – |
| CN[C@@H](C)C(=O)N[C@H](C(=O)N1C[C@@H](F)C[C@H]1Cc1c(-c2nc3cc(F)ccc3n2C[C@@H]2C[C@H](F)CN2C(=O)[C@@H](NC(=O)[C@H](C)NC)C2CCC2)[nH]c2cc(F)ccc12)C1CCC1 [Embodiment 17] | > 8.00 | – | > 8.00 | 7.00 to 8.00 | > 8.00 | – |
| CC[C@H](NC(=O)[C@H](C)NC)C(=O)N1C[C@@H](F)C[C@H]1Cc1c(-c2nc3cc(F)ccc3n2C[C@@H]2C[C@H](F)CN2C(=O)[C@@H](NC(=O)[C@H](C)NC)C(C)C)[nH]c2cc(F)ccc12 [Embodiment 18] | > 8.00 | 8.22 | > 8.00 | 7.00 to 8.00 | 7.00 to 8.00 | – |
| CC[C@H](NC(=O)[C@H](C)NC)C(=O)N1C[C@@H](F)C[C@H]1Cc1c(-c2nc3cc(F)ccc3n2C[C@@H]2C[C@H](F)CN2C(=O)[C@@H](NC(=O)[C@H](C)NC)C(C)(C)C)[nH]c2cc(F)ccc12 [Embodiment 19] | > 8.00 | – | > 8.00 | 7.00 to 8.00 | 7.00 to 8.00 | – |
| CC[C@H](NC(=O)[C@H](C)NC)C(=O)N1C[C@@H](F)C[C@H]1Cc1c(-c2nc3cc(F)ccc3n2C[C@@H]2C[C@H](F)CN2C(=O)[C@@H](NC(=O)[C@H](C)NC)C2CCCCC2)[nH]c2cc(F)ccc12 [Embodiment 20] | > 8.00 | – | > 8.00 | 7.00 to 8.00 | 7.00 to 8.00 | – |
| CN[C@@H](C)C(=O)N[C@H](C(=O)N1C[C@@H](F)C[C@H]1Cc1c(-c2nc3cc(F)ccc3n2C[C@@H]2C[C@H](F)CN2C(=O)[C@@H](NC(=O)[C@H](C)NC)C2CC2)[nH]c2cc(F)ccc12)C(C)C [Embodiment 21] | 7.00 to 8.00 | – | > 8.00 | 7.00 to 8.00 | 7.00 to 8.00 | – |
| CC[C@H](NC(=O)[C@H](C)NC)C(=O)N1C[C@@H](F)C[C@H]1Cn1c(-c2[nH]c3cc(F)ccc3c2C[C@@H]2C[C@H](F)CN2C(=O)[C@@H](NC(=O)[C@H](C)NC)C(C)(C)C)nc2cc(F)ccc21 [Embodiment 26] | – | – | > 8.00 | > 8.00 | > 8.00 | > 8.00 |

Second part, led by results:

| pEC50 [1, 5] | pEC50 [1, 6] | pIC50 [2] | pIC50 [3] | pIC50 [4] | Structure (SMILES) | pEC50 ([1]; Homo sapiens, Table 3, 20 ng/mL TNF-α, 6 h, Bright-Glo luciferase, values given as ranges) |
| --- | --- | --- | --- | --- | --- | --- |
| > 8.00 | – | > 8.00 | 7.00 to 8.00 | 7.00 to 8.00 | CN[C@@H](C)C(=O)N[C@H](C(=O)N1C[C@@H](F)C[C@H]1Cn1c(-c2[nH]c3cc(F)ccc3c2C[C@@H]2C[C@H](F)CN2C(=O)[C@@H](NC(=O)[C@H](C)NC)C(C)(C)C)nc2cc(F)ccc21)C1CC1 [Embodiment 22] | – |
| > 8.00 | – | > 8.00 | > 8.00 | 7.00 to 8.00 | CN[C@@H](C)C(=O)N[C@H](C(=O)N1C[C@@H](F)C[C@H]1Cc1c(-c2nc3cc(F)ccc3n2C[C@@H]2C[C@H](F)CN2C(=O)[C@@H](NC(=O)[C@H](C)NC)C2CC2)[nH]c2cc(F)ccc12)C1CCCCC1 [Embodiment 23] | – |
| 7.00 to 8.00 | – | > 8.00 | 7.00 to 8.00 | 7.00 to 8.00 | CC[C@H](NC(=O)[C@H](C)NC)C(=O)N1C[C@@H](F)C[C@H]1Cn1c(-c2[nH]c3cc(F)ccc3c2C[C@@H]2C[C@H](F)CN2C(=O)[C@@H](NC(=O)[C@H](C)NC)C(C)C)nc2cc(F)ccc21 [Embodiment 24] | – |
| 7.00 to 8.00 | – | > 8.00 | 7.00 to 8.00 | 7.00 to 8.00 | CC[C@H](NC(=O)[C@H](C)NC)C(=O)N1C[C@@H](F)C[C@H]1Cn1c(-c2[nH]c3cc(F)ccc3c2C[C@@H]2C[C@H](F)CN2C(=O)[C@@H](NC(=O)[C@H](C)NC)C2CC2)nc2cc(F)ccc21 [Embodiment 25] | – |
| > 8.00 | – | > 8.00 | > 8.00 | > 8.00 | CC[C@H](NC(=O)[C@H](C)NC)C(=O)N1C[C@@H](F)C[C@H]1Cn1c(-c2[nH]c3cc(F)ccc3c2C[C@@H]2C[C@H](F)CN2C(=O)[C@@H](NC(=O)[C@H](C)NC)C2CCCCC2)nc2cc(F)ccc21 [Embodiment 27] | – |
| > 8.00 | – | > 8.00 | 7.00 to 8.00 | > 8.00 | CN[C@@H](C)C(=O)N[C@H](C(=O)N1C[C@@H](F)C[C@H]1Cn1c(-c2[nH]c3cc(F)ccc3c2C[C@@H]2C[C@H](F)CN2C(=O)[C@@H](NC(=O)[C@H](C)NC)C2CC2)nc2cc(F)ccc21)C(C)C [Embodiment 28] | – |
| > 8.00 | – | > 8.00 | 7.00 to 8.00 | 7.00 to 8.00 | CN[C@@H](C)C(=O)N[C@H](C(=O)N1C[C@@H](F)C[C@H]1Cc1c(-c2nc3cc(F)ccc3n2C[C@@H]2C[C@H](F)CN2C(=O)[C@@H](NC(=O)[C@H](C)NC)C(C)(C)C)[nH]c2cc(F)ccc12)C1CC1 [Embodiment 29] | – |
| > 8.00 | – | > 8.00 | 7.00 to 8.00 | 7.00 to 8.00 | CN[C@@H](C)C(=O)N[C@H](C(=O)N1C[C@@H](F)C[C@H]1Cc1c(-c2nc3cc(F)ccc3n2C[C@@H]2C[C@H](F)CN2C(=O)[C@@H](NC(=O)[C@H](C)NC)C2CCCCC2)[nH]c2cc(F)ccc12)C1CC1 [Embodiment 30] | – |
